Assays:
Type in all cases: in vivo
Settings in all cases: Glufosinate 3000 ml/ha, Triacontanol 500 ml/ha
[1] = system: PANRP (Brachiaria reptans); experiment: Field trial, weed control in papaya orchard, PANRP
Protocol: (§1) Field trials were carried out to test the synergy of the combination Glufosinate and Triacontanol. The field trials were carried out at Murari, A.P. The percentage efficacy was calculated after 15, 25 and 30 days of applications. The application was in the open space among the plants in a Papaya orchard and the results are recorded in the table below:—

[2] = system: TRTPO (Trianthema portulacastrum); experiment: Field trial, weed control in papaya orchard, TRTPO
Protocol: as §1
(§2) TRTPO—Trianthema portulacastrum, COMBE—Commelina benghalensis, AMASP—Amaranthus spinosus, PTNHY—Parthenium hysterophorus, 1CRGG—Corchorus, DIMRE—Dinebra retroflexa, CYNDH—Cynodon dactylon, CYPRO—Cyperus rotundus, EPHHL—Euphorbia heterophylla

[3] = system: COMBE (Commelina benghalensis); experiment: Field trial, weed control in papaya orchard, COMBE
Protocol: as §1, §2

[4] = system: AMASP (Amaranthus spinosus); experiment: Field trial, weed control in papaya orchard, AMASP
Protocol: as §1, §2

[5] = system: PTNHY (Parthenium hysterophorus); experiment: Field trial, weed control in papaya orchard, PTNHY
Protocol: as §1, §2

1CRGG (Corchorus) = experiment: Field trial, weed control in papaya orchard, 1CRGG
Protocol: as §1, §2

[6] = system: DIMRE (Dinebra retroflexa); experiment: Field trial, weed control in papaya orchard, DIMRE
Protocol: as §1, §2

CYNDH (Cynodon dactylon) = experiment: Field trial, weed control in papaya orchard, CYNDH
Protocol: as §1, §2

CYPRO (Cyperus rotundus) = experiment: Field trial, weed control in papaya orchard, CYPRO
Protocol: as §1, §2

[7] = system: EPHHL (Euphorbia heterophylla); experiment: Field trial, weed control in papaya orchard, EPHHL
Protocol: as §1, §2

CP(=O)(O)CCC(N)C(=O)O (centres unmarked) [Glufosinate]
% Weed control at 15 DAA ([1]; 15 DAA): 85%
% Weed control at 25 DAA ([1]; 25 DAA): 65%
% Weed control at 30 DAA TRTPO [2]: 81%
% Weed control at 30 DAA COMBE [3]: 47%
% Weed control at 30 DAA AMASP [4]: 73%
% Weed control at 30 DAA PTNHY [5]: 96%
% Weed control at 30 DAA 1CRGG (1CRGG (Corchorus)): 69%
% Weed control at 30 DAA DIMRE [6]: 62%
% Weed control at 30 DAA CYNDH (CYNDH (Cynodon dactylon)): 54%
% Weed control at 30 DAA CYPRO (CYPRO (Cyperus rotundus)): 11%
% Weed control at 30 DAA EPHHL [7]: 80%
